Key:
mouse TREK-1 (mTREK-1) = molecular target: T1, mouse TREK-1 (mTREK-1) (Mus musculus, UniProt P97438); assay: mTREK-1 manual patch clamp assay; type: cell-based; settings: mouse TREK-1, manual patch clamp; read-out: TREK-1 IC50 (mouse, MPC)
T1 construct: expressed in transfected cells; host or cells: CHO-K1 (transient)
T1 sequence (P97438 1-426): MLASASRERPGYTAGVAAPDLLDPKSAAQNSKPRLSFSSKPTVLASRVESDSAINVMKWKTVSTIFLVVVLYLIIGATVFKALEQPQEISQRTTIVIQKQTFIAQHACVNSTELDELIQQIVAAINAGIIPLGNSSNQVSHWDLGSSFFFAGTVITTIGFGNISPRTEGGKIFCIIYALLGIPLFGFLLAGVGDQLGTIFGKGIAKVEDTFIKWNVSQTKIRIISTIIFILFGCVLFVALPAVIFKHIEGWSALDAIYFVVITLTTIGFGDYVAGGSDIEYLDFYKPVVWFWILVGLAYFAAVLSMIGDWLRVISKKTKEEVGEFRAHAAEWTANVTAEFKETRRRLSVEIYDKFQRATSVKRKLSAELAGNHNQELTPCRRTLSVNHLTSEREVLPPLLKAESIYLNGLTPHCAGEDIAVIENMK
Procedure: hTREK-1 and mTREK-1 patch clamp assay
CHO-K1 cells stably expressing hTREK-1 or CHO-K1 cells transiently expressing mouse TREK-1 (mTREK-1) were plated on glass coverslips, and voltage clamped in the whole-cell configuration of the patch clamp technique. Cells were voltage clamped at a holding potential of - 80 mV and the stepped to 0 mV for 500 msec. The voltage was subsequently ramped from -120mV to +80 mV over a 500 msec duration. This step-ramp protocol was repeated every 10 sec. The bathing solution contained the following: 135 mM NaCl, 5 mM KCl, 2 mM CaCl2, 1 mM MgCl2, 5 mM D-Glucose, 10 mM HEPES, 10 mM sucrose (adjusted to pH 7.4 with NaOH, 300 mosmol/kg H2O). The pipette solution contained the following: 135 mM KCl, 2 mM MgCl2, 1 mM EGTA, 10 mM HEPES, 2 mM Na2ATP (adjusted to pH 7.35 with KOH, 285 mosmol/kg H2O). Test […]
compounds were dissolved into the bathing solution. The effects of test compound on the currents were calculated at 0 mV using the following equations:
% inhibition = (1-post current/pre current) x 100
% inhibition vs compound concentrations were plotted in GraphPad Prism and calculated IC50. […]

Kir2.2 = Kir2.2 (Homo sapiens, UniProt Q14500); assay: MPC ion channel panel, Kir2.2; type: cell-based
[1] = IV/PO pharmacokinetic study, NHP (cyno); type: in vivo; settings: for clearance / Vd / half-life / Cmax: cynomolgus monkey, plasma; for clearance / Vd / half-life: iv 1 mg/kg; for clearance: read-out: CLp; for Vd: read-out: Vss; for half-life: read-out: elimination t1/2 (converted); for Cmax / F (%) po: po 1 mg/kg
Kv4.3 = Kv4.3 (Homo sapiens, UniProt Q9UK17); assay: MPC ion channel panel, Kv4.3; type: cell-based
human TREK-2 (hTREK-2) = molecular target: T2, human TREK-2 (hTREK-2) (Homo sapiens, UniProt P57789); assay: TREK-2 thallium flux assay (HEK293 cells stably expressing hTREK-2); type: cell-based; settings: human TREK-2, thallium flux; read-out: h TREK-2 Tl+ IC50
T2 construct: expressed in transfected cells
T2 sequence (P57789 1-538): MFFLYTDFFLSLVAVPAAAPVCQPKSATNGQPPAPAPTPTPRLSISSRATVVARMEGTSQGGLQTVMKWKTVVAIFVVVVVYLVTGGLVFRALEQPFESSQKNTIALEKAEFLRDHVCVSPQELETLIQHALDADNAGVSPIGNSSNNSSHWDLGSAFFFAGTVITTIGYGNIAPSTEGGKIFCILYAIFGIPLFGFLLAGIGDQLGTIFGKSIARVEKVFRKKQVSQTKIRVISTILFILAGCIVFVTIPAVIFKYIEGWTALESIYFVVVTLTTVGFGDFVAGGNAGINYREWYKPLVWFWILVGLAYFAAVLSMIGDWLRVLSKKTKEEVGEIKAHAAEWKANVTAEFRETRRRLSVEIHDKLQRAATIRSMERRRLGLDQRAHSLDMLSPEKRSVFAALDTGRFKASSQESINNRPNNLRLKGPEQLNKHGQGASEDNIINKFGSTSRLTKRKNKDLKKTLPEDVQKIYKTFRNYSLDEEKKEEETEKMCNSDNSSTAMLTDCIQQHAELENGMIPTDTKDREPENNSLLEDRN
Procedure: 0.3% DMSO - ΔRatio of 10 μM control compound)}x100
% inhibition vs compound concentration were plotted in XLfit and calculated IC50.
TREK-2 Thallium flux assay
HEK293 cells stably expressing human TREK-2 (hTREK-2) are plated in 384-well plates, cultured overnight, loaded with Thallos dye the following day. Test compounds or control compound (tert-butyl (3-((4-(benzyloxy)-2-methylphenyl)carbamoyl)-4-chlorophenyl)carbamate) or 0.3% DMSO (vehicle control) which are prepared on separate plates are added to the cell plates and incubated for 10 min, and then the cells were treated with thallium stimulus buffer to initiate […]
To measure the efficacy and potency of test compounds, the change in fluorescence intensity (ΔRatio) and % inhibition are calculated using the following equations: […]

Cav1.2 = Cav1.2 (Homo sapiens, UniProt Q13936); assay: MPC ion channel panel, Cav1.2; type: cell-based
CACO-2 efflux ratio = type: in vitro ADME; settings: human, pH 7.4, efflux ratio, read-out: CACO-2 (ER)
Kir2.1 = Kir2.1 (Homo sapiens, UniProt P63252); assay: MPC ion channel panel, Kir2.1; type: cell-based
[2] = IV/PO pharmacokinetic study, dog (beagle); type: in vivo; settings: for clearance: beagle, dog, iv, read-out: CLp; for clearance / Vd / half-life / Cmax: plasma; for clearance / CLp / Vd / half-life: iv 1 mg/kg (10), 0.5 mg/kg (11); for Vd: read-out: Vss; for half-life: read-out: elimination t1/2 (converted); for Cmax / F (%) po: po 1 mg/kg

Chain of Cav1.2 (Q13936 whole entry): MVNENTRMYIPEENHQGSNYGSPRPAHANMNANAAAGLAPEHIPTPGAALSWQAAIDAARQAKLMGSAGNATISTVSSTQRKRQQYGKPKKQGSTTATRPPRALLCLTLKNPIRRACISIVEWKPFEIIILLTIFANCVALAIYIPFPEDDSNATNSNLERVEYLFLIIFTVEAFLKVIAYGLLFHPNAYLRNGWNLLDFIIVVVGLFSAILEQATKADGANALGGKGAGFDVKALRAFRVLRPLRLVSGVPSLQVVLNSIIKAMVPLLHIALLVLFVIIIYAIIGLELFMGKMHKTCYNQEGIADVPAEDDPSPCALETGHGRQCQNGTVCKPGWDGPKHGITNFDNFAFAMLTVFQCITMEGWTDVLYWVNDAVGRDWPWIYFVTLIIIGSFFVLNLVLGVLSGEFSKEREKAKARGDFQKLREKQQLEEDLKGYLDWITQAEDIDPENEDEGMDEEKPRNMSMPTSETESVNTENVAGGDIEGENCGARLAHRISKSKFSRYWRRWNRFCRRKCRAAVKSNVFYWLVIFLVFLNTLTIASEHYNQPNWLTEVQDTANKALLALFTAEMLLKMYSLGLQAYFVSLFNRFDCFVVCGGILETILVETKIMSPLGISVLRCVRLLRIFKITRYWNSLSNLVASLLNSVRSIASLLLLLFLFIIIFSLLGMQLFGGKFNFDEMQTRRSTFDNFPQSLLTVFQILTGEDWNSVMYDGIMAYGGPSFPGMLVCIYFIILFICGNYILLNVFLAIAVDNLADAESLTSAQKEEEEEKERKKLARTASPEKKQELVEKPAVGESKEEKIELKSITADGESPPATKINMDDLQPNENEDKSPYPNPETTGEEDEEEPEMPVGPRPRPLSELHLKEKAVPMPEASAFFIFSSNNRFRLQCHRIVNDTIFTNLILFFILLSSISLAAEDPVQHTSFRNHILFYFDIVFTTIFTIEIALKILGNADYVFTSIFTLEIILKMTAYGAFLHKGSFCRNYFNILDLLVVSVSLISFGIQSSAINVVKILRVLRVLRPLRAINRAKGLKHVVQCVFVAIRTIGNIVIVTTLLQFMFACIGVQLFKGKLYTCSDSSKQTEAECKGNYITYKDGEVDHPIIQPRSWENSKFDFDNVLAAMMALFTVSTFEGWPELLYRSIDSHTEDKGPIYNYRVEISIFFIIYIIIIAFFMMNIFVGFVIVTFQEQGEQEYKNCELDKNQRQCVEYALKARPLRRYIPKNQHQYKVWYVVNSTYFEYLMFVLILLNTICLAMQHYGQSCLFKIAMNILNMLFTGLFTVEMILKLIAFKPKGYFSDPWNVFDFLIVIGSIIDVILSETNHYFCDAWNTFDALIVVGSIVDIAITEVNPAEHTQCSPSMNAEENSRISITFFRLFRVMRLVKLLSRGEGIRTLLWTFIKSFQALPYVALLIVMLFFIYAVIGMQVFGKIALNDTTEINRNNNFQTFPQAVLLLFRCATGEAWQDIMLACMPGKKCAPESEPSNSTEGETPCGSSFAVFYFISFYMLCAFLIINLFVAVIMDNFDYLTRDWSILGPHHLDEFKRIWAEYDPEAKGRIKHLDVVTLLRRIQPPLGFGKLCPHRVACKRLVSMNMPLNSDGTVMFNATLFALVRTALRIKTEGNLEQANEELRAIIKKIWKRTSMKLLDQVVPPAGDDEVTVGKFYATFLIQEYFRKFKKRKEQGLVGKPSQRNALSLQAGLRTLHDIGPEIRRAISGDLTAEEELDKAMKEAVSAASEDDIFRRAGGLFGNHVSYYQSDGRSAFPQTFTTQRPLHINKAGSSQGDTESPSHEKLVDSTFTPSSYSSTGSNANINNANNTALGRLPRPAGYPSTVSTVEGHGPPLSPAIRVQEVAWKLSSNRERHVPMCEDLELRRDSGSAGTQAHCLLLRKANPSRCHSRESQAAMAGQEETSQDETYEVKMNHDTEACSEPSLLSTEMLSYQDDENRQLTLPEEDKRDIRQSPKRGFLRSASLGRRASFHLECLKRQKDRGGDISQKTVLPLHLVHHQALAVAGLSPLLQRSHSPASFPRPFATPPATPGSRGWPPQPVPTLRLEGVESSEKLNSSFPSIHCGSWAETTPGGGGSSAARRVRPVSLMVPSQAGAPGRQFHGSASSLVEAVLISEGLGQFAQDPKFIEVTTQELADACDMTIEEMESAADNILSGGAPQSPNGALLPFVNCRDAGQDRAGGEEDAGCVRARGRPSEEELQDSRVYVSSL
Chain of Cav1.2 (Q08289 whole entry partner): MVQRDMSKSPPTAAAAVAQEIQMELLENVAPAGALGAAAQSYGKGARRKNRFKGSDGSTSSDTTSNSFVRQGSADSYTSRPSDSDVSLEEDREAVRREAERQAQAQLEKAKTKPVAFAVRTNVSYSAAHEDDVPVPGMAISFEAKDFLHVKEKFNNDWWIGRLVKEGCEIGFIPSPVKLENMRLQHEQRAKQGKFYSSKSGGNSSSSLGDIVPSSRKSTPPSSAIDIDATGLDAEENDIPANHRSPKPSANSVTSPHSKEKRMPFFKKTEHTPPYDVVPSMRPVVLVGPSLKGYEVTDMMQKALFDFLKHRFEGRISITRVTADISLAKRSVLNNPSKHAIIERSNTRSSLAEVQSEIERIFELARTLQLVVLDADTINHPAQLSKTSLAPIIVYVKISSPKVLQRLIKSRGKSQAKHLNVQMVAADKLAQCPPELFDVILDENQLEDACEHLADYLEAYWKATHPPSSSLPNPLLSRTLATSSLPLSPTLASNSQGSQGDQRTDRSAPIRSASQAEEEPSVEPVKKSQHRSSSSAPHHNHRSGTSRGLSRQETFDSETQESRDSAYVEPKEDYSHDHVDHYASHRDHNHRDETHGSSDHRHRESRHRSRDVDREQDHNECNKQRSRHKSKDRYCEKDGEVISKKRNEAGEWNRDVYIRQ
Chain of Cav1.2 (P54289 25-956 partner limits assumed): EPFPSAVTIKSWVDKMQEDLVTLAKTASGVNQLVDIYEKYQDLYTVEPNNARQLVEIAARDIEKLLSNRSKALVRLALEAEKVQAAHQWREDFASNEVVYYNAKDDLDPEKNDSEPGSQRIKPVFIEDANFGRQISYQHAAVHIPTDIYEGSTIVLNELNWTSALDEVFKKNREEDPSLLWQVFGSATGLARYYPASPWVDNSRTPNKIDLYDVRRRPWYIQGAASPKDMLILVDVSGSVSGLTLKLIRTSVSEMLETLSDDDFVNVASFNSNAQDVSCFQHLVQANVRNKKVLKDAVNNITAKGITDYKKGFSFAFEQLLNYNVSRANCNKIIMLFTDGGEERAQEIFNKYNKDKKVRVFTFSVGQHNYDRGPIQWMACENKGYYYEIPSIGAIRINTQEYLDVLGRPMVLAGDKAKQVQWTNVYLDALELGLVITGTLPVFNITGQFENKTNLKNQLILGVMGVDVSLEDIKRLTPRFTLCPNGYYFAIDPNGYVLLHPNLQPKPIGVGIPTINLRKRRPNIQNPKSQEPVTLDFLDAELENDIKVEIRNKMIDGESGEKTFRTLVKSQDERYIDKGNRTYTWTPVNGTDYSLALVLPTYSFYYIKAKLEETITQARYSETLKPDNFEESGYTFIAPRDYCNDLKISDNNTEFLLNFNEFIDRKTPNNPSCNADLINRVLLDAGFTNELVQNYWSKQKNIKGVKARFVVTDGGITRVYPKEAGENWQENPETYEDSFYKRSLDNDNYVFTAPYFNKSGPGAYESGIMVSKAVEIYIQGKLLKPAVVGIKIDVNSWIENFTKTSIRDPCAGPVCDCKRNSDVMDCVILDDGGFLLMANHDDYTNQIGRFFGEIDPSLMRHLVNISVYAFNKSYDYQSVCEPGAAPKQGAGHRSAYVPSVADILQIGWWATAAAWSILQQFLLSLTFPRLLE
Chain of Cav1.2 (P54289 957-1103 partner limits assumed): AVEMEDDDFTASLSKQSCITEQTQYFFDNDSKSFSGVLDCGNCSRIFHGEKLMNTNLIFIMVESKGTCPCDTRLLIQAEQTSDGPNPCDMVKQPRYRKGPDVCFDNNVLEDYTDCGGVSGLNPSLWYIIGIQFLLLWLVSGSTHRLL
Chain of Kir2.1 (P63252 whole entry): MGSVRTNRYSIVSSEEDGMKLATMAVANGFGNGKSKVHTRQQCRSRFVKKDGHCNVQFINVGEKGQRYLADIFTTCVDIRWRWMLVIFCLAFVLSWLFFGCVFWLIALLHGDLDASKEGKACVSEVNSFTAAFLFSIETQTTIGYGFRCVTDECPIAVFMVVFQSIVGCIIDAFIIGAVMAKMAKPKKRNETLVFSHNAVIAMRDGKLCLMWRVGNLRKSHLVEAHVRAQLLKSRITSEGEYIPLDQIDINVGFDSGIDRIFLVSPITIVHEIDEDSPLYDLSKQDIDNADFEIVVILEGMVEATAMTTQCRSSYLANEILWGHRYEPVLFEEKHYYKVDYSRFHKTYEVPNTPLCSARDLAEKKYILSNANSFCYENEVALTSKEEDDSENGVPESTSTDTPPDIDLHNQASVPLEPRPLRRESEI
Chain of Kir2.2 (Q14500 whole entry): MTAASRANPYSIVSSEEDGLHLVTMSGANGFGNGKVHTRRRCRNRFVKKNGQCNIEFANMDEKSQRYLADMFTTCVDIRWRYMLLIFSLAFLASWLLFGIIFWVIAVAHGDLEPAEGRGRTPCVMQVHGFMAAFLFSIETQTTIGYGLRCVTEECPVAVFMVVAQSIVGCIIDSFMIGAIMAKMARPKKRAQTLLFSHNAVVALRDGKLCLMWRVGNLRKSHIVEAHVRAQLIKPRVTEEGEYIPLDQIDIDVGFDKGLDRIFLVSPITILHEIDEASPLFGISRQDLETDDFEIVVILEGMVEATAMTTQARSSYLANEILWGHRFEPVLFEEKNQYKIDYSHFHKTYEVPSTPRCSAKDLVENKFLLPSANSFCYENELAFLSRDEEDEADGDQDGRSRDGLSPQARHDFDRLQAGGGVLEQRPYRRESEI

SMILES | IC50 (mouse TREK-1 (mTREK-1)) [µM] | inhibition at 10 µM (Kir2.2) [%] | clearance [1] [L/h/kg] | Vd [1] [L/kg] | half-life [1] [h] | Cmax [1] [µg/mL] | F (%) po [1] [%] | inhibition at 10 µM (Kv4.3) [%] | IC50 (human TREK-2 (hTREK-2)) [µM] | inhibition at 10 µM (Cav1.2) [%] | efflux ratio (CACO-2 efflux ratio) | inhibition at 10 µM (Kir2.1) [%] | clearance [2] [L/h/kg] | CLp [2] [L/h/kg] | Vd [2] [L/kg] | half-life [2] [h] | Cmax [2] [µg/mL] | F (%) po [2] [%]
Cc1cc(C#Cc2ccccc2)cnc1NC(=O)c1cc(OC[C@@H]2COCCO2)ccc1Cl [Compound 7, (S)-5-((1,4-Dioxan-2-yl)methoxy)-2-chloro-N-(3-methyl-5-(phenylethynyl)pyridin-2-yl)benzamide] | 0.17 |  |  |  |  |  |  |  |  |  |  |  |  |  |  |  |  | 
CC(=O)N1CCC(n2ncc(Cl)c2C(=O)Nc2ncc(C#Cc3ccccc3)cc2C)CC1 [Compound 10, 1-(1-Acetylpiperidin-4-yl)-4-chloro-N-(3-methyl-5-(phenylethynyl)pyridin-2-yl)-1H-pyrazole-5-carboxamide] | 0.067 | 51 | 0.798 | 2.1 | 3.3 | 0.152 | 34 | ≤ 50 | 0.23 | ≤ 50 | 0.7 | ≤ 50 | < 0.12 | 0.114 | 5.9 | 56 | 0.315 | 97
CC(=O)N1CC[C@@H](n2ncc(Cl)c2C(=O)Nc2ncc(C#Cc3ccc(F)cc3)cc2C)[C@H](F)C1 [Compound 11, 1-((3R,4R)-1-Acetyl-3-fluoropiperidin-4-yl)-4-chloro-N-(5-((4-fluorophenyl)ethynyl)-3-methylpyridin-2-yl)-1H-pyrazole-5-carboxamide] | 0.76 | ≤ 50 | 0.39 | 4.4 | 9.3 | 0.26 | 89 | ≤ 50 | 0.29 | ≤ 50 | 0.91 | ≤ 50 | < 0.12 | 0.09 | 7.1 | 76 | 0.263 | 100

Reference: article PMC12621189, “Optimization of Selective and CNS Penetrant Alkyne-Based TREK Inhibitors: The Discovery and Characterization of ONO-9517601 (VU6022856) and ONO-7927846 (VU6024391)” (Journal of Medicinal Chemistry, 2025)
